Test results from PubChem BioAssay (NCI).
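Growth conditions: 96-well plates. Treatment: test compound, 48 hours, 5 concentrations. Analysis: linear interpolation between bracketing concentrations; unreached endpoints set to highest concentration. GI50 = concentration required for 50% inhibition of growth. Definition used: TGI = concentration required for complete inhibition of growth.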

Tests used:
Test in all cases: inhibition of tumour cell growth, NCI panel, 48 h
[1] = tested on: 786-0 renal
[2] = tested on: A498 renal
[3] = tested on: A549 NSCLC
[4] = tested on: ACHN renal
[5] = tested on: BT-549 breast
[6] = tested on: CAKI-1 renal
[7] = tested on: CCRF-CEM leukemia
[8] = tested on: COLO 205 colon
[9] = tested on: DU-145 prostate
[10] = tested on: EKVX NSCLC
[11] = tested on: HCC-2998 colon
[12] = tested on: HCT-116 colon
[13] = tested on: HCT-15 colon
[14] = tested on: HL-60(TB) leukemia
[15] = tested on: HOP-62 NSCLC
[16] = tested on: HOP-92 NSCLC
[17] = tested on: HS 578T breast
[18] = tested on: HT29 colon
[19] = tested on: IGROV1 ovarian
[20] = tested on: K-562 leukemia
[21] = tested on: KM12 colon
[22] = tested on: LOX IMVI melanoma
[23] = tested on: M14 melanoma
[24] = tested on: MALME-3M melanoma
[25] = tested on: MCF7 breast
[26] = tested on: MDA-MB-231 breast
[27] = tested on: MDA-MB-435
[28] = tested on: MOLT-4 leukemia
[29] = tested on: NCI-H226 lung
[30] = tested on: NCI-H23 lung
[31] = tested on: NCI-H460 lung
[32] = tested on: NCI-H522 lung
[33] = tested on: NCI/ADR-RES ovarian
[34] = tested on: OVCAR-3 ovarian
[35] = tested on: OVCAR-4 ovarian
[36] = tested on: OVCAR-5 ovarian
[37] = tested on: OVCAR-8 ovarian
[38] = tested on: PC-3 prostate
[39] = tested on: RPMI-8226 leukemia
[40] = tested on: RXF 393 renal
[41] = tested on: SF-268 CNS
[42] = tested on: SF-295 CNS
[43] = tested on: SF-539 CNS
[44] = tested on: SK-MEL-2 melanoma
[45] = tested on: SK-MEL-28 melanoma
[46] = tested on: SK-MEL-5 melanoma
[47] = tested on: SK-OV-3 ovarian
[48] = tested on: SN12C renal
[49] = tested on: SNB-19 CNS
[50] = tested on: SNB-75 CNS
[51] = tested on: SR leukemia
[52] = tested on: SW-620 colon
[53] = tested on: T-47D breast
[54] = tested on: TK-10 renal
[55] = tested on: U251 CNS
[56] = tested on: UACC-257 melanoma
[57] = tested on: UACC-62 melanoma
[58] = tested on: UO-31 renal

## Ic1ccccc1-c1ccccc1
[1]
  GI50: > 100 µM
  TGI: > 100 µM
[2]
  GI50: 65.1 µM
  TGI: > 100 µM
[3]
  GI50: > 100 µM
  TGI: > 100 µM
[4]
  GI50: > 100 µM
  TGI: > 100 µM
[5]
  GI50: > 100 µM
  TGI: > 100 µM
[6]
  GI50: > 100 µM
  TGI: > 100 µM
[7]
  GI50: 41.5 µM
  TGI: > 100 µM
[8]
  GI50: > 100 µM
  TGI: > 100 µM
[9]
  GI50: > 100 µM
  TGI: > 100 µM
[10]
  GI50: > 100 µM
  TGI: > 100 µM
[11]
  GI50: > 100 µM
  TGI: > 100 µM
[12]
  GI50: 94.9 µM
  TGI: > 100 µM
[13]
  GI50: > 100 µM
  TGI: > 100 µM
[14]
  GI50: 37.1 µM
  TGI: > 100 µM
[15]
  GI50: > 100 µM
  TGI: > 100 µM
[16]
  GI50: 13.2 µM
  TGI: > 100 µM
[17]
  GI50: > 100 µM
  TGI: > 100 µM
[18]
  GI50: > 100 µM
  TGI: > 100 µM
[19]
  GI50: > 100 µM
  TGI: > 100 µM
[20]
  GI50: > 100 µM
  TGI: > 100 µM
[21]
  GI50: > 100 µM
  TGI: > 100 µM
[22]
  GI50: 42.4 µM
  TGI: > 100 µM
[23]
  GI50: > 100 µM
  TGI: > 100 µM
[24]
  GI50: 96.2 µM
  TGI: > 100 µM
[25]
  GI50: > 100 µM
  TGI: > 100 µM
[26]
  GI50: > 100 µM
  TGI: > 100 µM
[27]
  GI50: > 100 µM
  TGI: > 100 µM
[28]
  GI50: 26.8 µM
  TGI: > 100 µM
[29]
  GI50: > 100 µM
  TGI: > 100 µM
[30]
  GI50: > 100 µM
  TGI: > 100 µM
[31]
  GI50: > 100 µM
  TGI: > 100 µM
[32]
  GI50: > 100 µM
  TGI: > 100 µM
[33]
  GI50: > 100 µM
  TGI: > 100 µM
[34]
  GI50: > 100 µM
  TGI: > 100 µM
[35]
  GI50: > 100 µM
  TGI: > 100 µM
[36]
  GI50: > 100 µM
  TGI: > 100 µM
[37]
  GI50: > 100 µM
  TGI: > 100 µM
[38]
  GI50: > 100 µM
  TGI: > 100 µM
[39]
  GI50: 62.7 µM
  TGI: > 100 µM
[40]
  GI50: 89.1 µM
  TGI: > 100 µM
[41]
  GI50: > 100 µM
  TGI: > 100 µM
[42]
  GI50: > 100 µM
  TGI: > 100 µM
[43]
  GI50: > 100 µM
  TGI: > 100 µM
[44]
  GI50: 76 µM
  TGI: > 100 µM
[45]
  GI50: > 100 µM
  TGI: > 100 µM
[46]
  GI50: > 100 µM
  TGI: > 100 µM
[47]
  GI50: > 100 µM
  TGI: > 100 µM
[48]
  GI50: > 100 µM
  TGI: > 100 µM
[49]
  GI50: > 100 µM
  TGI: > 100 µM
[50]
  GI50: > 100 µM
  TGI: > 100 µM
[51]
  GI50: 18.3 µM
  TGI: > 100 µM
[52]
  GI50: > 100 µM
  TGI: > 100 µM
[53]
  GI50: 70.5 µM
  TGI: > 100 µM
[54]
  GI50: > 100 µM
  TGI: > 100 µM
[55]
  GI50: > 100 µM
  TGI: > 100 µM
[56]
  GI50: > 100 µM
  TGI: > 100 µM
[57]
  GI50: 46.7 µM
  TGI: > 100 µM
[58]
  GI50: 74.5 µM
  TGI: > 100 µM
